Reference: patent publication US7265120B2, “Pyrazine derivatives and pharmaceutical use thereof” (Astellas Pharma Inc., priority 2004, dated 2007)

Structure (SMILES)	melting point
CC(C)n1nc(-c2nc(NCCN3CCCCC3)c(N)nc2-c2ccccc2)ccc1=O [Example 103, 6-(5-amino-3-phenyl-6-{[2-(1-piperidinyl)ethyl]amino}-2-pyrazinyl)-2-isopropyl-3(2H)-pyridazinone]	204.5 to 207 °C
Cn1nc(-c2nc([S+](C)[O-])c(N)nc2-c2ccccc2)ccc1=O (centres unmarked) [Example 62, 6-[5-amino-6-(methylsulfinyl)-3-phenyl-2-pyrazinyl]-2-methyl-3(2H)-pyridazinone]	209 to 210.5 °C
Cn1nc(-c2nc(N3CCN(c4ccccc4)CC3)c(N)nc2-c2ccccc2)ccc1=O [Example 130, 6-[5-amino-3-phenyl-6-(4-phenyl-1-piperazinyl)-2-pyrazinyl]-2-methyl-3(2H)-pyridazinone]	155 to 157 °C
CC(C)n1nc(-c2ncc(O)nc2-c2ccccc2)ccc1=O [Example 1, 6-(5-hydroxy-3-phenyl-2-pyrazinyl)-2-isopropyl-3(2H)-pyridazinone]	225 to 227 °C
CC(C)n1nc(-c2nc(C#N)c(C(N)=O)nc2-c2ccccc2)ccc1=O [Example 23, 3-Cyano-5-(1-isopropyl-6-oxo-1,6-dihydro-3-pyridazinyl)-6-phenyl-2-pyrazinecarboxamide]	> 250 °C
Cn1nc(-c2nc(S(C)(=O)=O)c(N)nc2-c2ccccc2)ccc1=O [Example 62, 6-[5-amino-6-(methylsulfonyl)-3-phenyl-2-pyrazinyl]-2-methyl-3(2H)-pyridazinone]	231 to 233 °C
Cn1nc(-c2nc(NCCCc3ccccc3)c(N)nc2-c2ccccc2)ccc1=O [Example 126, 6-{5-amino-3-phenyl-6-[(3-phenylpropyl)amino]-2-pyrazinyl}-2-methyl-3(2H)-pyridazinone]	196 to 197.5 °C
COc1ccc(N2CCN(c3nc(-c4ccc(=O)n(C(C)C)n4)c(-c4ccccc4)nc3N)CC2)cc1 [Example 116, 6-{5-amino-6-[4-(4-methoxyphenyl)-1-piperazinyl]-3-phenyl-2-pyrazinyl}-2-isopropyl-3(2H)-pyridazinone]	194 to 196 °C
Cn1nc(-c2nc(NCCNc3ccccc3)c(N)nc2-c2ccccc2)ccc1=O [Example 123, 6-{5-amino-6-[(2-anilinoethyl)amino]-3-phenyl-2-pyrazinyl}-2-methyl-3(2H)-pyridazinone]	181 to 183 °C
Cn1nc(-c2nc(NC3CCN(Cc4ccccc4)CC3)c(N)nc2-c2ccccc2)ccc1=O [Example 129, 6-{5-amino-6-[(1-benzyl-4-piperidinyl)amino]-3-phenyl-2-pyrazinyl}-2-methyl-3(2H)-pyridazinone]	191 to 194 °C
COc1ccc(CN(Cc2ccc(OC)cc2)c2nc(-c3ccccc3)c(-c3ccc(=O)n(C(C)C)n3)nc2C#N)cc1 [Example 51, 3-[bis(4-methoxybenzyl)amino]-6-(1-isopropyl-6-oxo-1,6-dihydro-3-pyridazinyl)-5-phenyl-2-pyrazinecarbonitrile]	207 to 209 °C
CC(C)n1nc(-c2ncc(N=S(C)C)nc2-c2ccccc2)ccc1=O [Example 65, 6-{5-[(dimethyl-lambda˜4˜-sulfanylidene)amino]-3-phenyl-2-pyrazinyl}-2-isopropyl-3(2H)-pyridazinone]	190 to 194 °C
CCn1nc(-c2ncc(N)nc2-c2ccccc2)ccc1=O [Example 59, 6-(5-amino-3-phenyl-2-pyrazinyl)-2-ethyl-3(2H)-pyridazinone]	227 to 229 °C
Cn1nc(-c2nc(NCCN3CCCCC3)c(N)nc2-c2ccccc2)ccc1=O [Example 121, 6-(5-amino-3-phenyl-6-{[2-(1-piperidinyl)ethyl]amino}-2-pyrazinyl)-2-methyl-3(2H)-pyridazinone]	155 to 157 °C
CC(C)n1nc(-c2nc(C#N)c(NC=O)nc2-c2ccccc2)ccc1=O [Example 25, [3-Cyano-5-(1-isopropyl-6-oxo-1,6-dihydro-3-pyridazinyl)-6-phenyl-2-pyrazinyl]formamide]	198 to 200 °C
CC(C)n1nc(-c2nc(C(N)=S)c(N)nc2-c2ccccc2)ccc1=O [Example 26, 3-amino-6-(1-isopropyl-6-oxo-1,6-dihydro-3-pyridazinyl)-5-phenyl-2-pyrazinecarbothioamide]	> 250 °C
CC(C)n1nc(-c2nc(-c3cnn(C)c3)c(N)nc2-c2ccccc2)ccc1=O [Example 93, 6-[5-amino-6-(1-methyl-1H-pyrazol-4-yl)-3-phenyl-2-pyrazinyl]-2-isopropyl-3(2H)-pyridazinone]	201 to 203 °C
COc1nc(-c2ccccc2)c(-c2ccc(=O)n(C(C)C)n2)nc1C#N [Example 22, 6-(1-isopropyl-6-oxo-1,6-dihydro-3-pyridazinyl)-3-methoxy-5-phenyl-2-pyrazinecarbonitrile]	170 to 172 °C
CC(C)n1nc(-c2nc(NC3CCN(Cc4ccccc4)CC3)c(N)nc2-c2ccccc2)ccc1=O [Example 107, 6-{5-amino-6-[(1-benzyl-4-piperidinyl)amino]-3-phenyl-2-pyrazinyl}-2-isopropyl-3(2H)-pyridazinone]	214 to 216.5 °C
COc1ccc(-c2nc(-c3ccc(=O)n(C(C)C)n3)c(-c3ccccc3)nc2N)cn1 [Example 83, 6-[5-amino-6-(6-methoxy-3-pyridyl)-3-phenyl-2-pyrazinyl]-2-isopropyl-3(2H)-pyridazinone]	230 to 232.5 °C
Cn1nc(-c2nc(NCCc3ccccn3)c(N)nc2-c2ccccc2)ccc1=O [Example 127, 6-(5-amino-3-phenyl-6-{[2-(2-pyridyl)ethyl]amino}-2-pyrazinyl)-2-methyl-3(2H)-pyridazinone]	224 to 227 °C
CC(C)n1nc(-c2nc(C3=CCCN(C)C3)c(N)nc2-c2ccccc2)ccc1=O [Example 92, 6-[5-amino-6-(1-methyl-1,2,5,6-tetrahydro-3-pyridyl)-3-phenyl-2-pyrazinyl]-2-isopropyl-3(2H)-pyridazinone]	191 to 193 °C
CCn1nc(-c2nc(C#N)c(NCc3ccc(OC)cc3)nc2-c2ccccc2)ccc1=O [Example 12, 6-(1-Ethyl-6-oxo-1,6-dihydro-3-pyridazinyl)-3-[(4-methoxybenzyl)amino]-5-phenyl-2-pyrazinecarbonitrile]	165.5 to 167.5 °C
Cn1nc(-c2nc(N3CCN4CCCC4C3)c(N)nc2-c2ccccc2)ccc1=O (centres unmarked) [Example 131, 6-[5-amino-6-(hexahydropyrrolo[1,2-a]pyrazin-2(1H)-yl)-3-phenyl-2-pyrazinyl]-2-methyl-3(2H)-pyridazinone]	177 to 179 °C
CC(C)n1nc(-c2nc(NCCCc3ccccc3)c(N)nc2-c2ccccc2)ccc1=O [Example 136, 6-{5-amino-3-phenyl-6-[(3-phenylpropyl)amino]-2-pyrazinyl}-2-isopropyl-3(2H)-pyridazinone]	185.5 to 187 °C
Cn1nc(-c2nc(-c3cccs3)c(N)nc2-c2ccccc2)ccc1=O [Example 86, 6-[5-amino-3-phenyl-6-(2-thienyl)-2-pyrazinyl]-2-methyl-3(2H)-pyridazinone]	177 °C (dec.)

More lines, now with the values ahead:

melting point	Structure (SMILES)
91 to 94 °C	Cn1nc(-c2nc(OCCCc3ccccc3)c(N)nc2-c2ccccc2)ccc1=O [Example 183, 6-[5-amino-3-phenyl-6-(3-phenylpropoxy)-2-pyrazinyl]-2-methyl-3(2H)-pyridazinone]
136 to 137.5 °C	CC(C)n1nc(-c2nc(OCCN(C)C)c(N)nc2-c2ccccc2)ccc1=O [Example 170, 6-{5-amino-6-[2-(dimethylamino)ethoxy]-3-phenyl-2-pyrazinyl}-2-isopropyl-3(2H)-pyridazinone]
198 to 200 °C	CC(C)Oc1nc(-c2ccc(=O)n(C(C)C)n2)c(-c2ccccc2)nc1N [Example 160, 6-(5-amino-6-isopropoxy-3-phenyl-2-pyrazinyl)-2-isopropyl-3(2H)-pyridazinone]
> 250 °C	CC(C)n1nc(-c2nc(-n3ccnc3)c(N)nc2-c2ccccc2)ccc1=O [Example 150, 6-[5-amino-6-(1H-imidazol-1-yl)-3-phenyl-2-pyrazinyl]-2-isopropyl-3(2H)-pyridazinone]
189 to 191 °C	CC(C)n1nc(-c2ncc(N)nc2-c2ccccc2Br)ccc1=O [Example 199, 6-[5-amino-3-(2-bromophenyl)-2-pyrazinyl]-2-isopropyl-3(2H)-pyridazinone]
238 to 240 °C	CC(C)n1nc(-c2nc(C(N)=O)c(N)nc2-c2cccs2)ccc1=O [Example 191, 3-amino-6-(1-isopropyl-6-oxo-1,6-dihydro-3-pyridazinyl)-5-(2-thienyl)-2-pyrazinecarboxamide]
185 to 187 °C	Cn1nc(-c2nc(OCc3ccccc3)c(N)nc2-c2ccccc2)ccc1=O [Example 182, 6-[5-amino-6-(benzyloxy)-3-phenyl-2-pyrazinyl]-2-methyl-3(2H)-pyridazinone]
> 250 °C	CC(C)n1nc(-c2nc(Nc3ccccc3)c(N)nc2-c2ccccc2)ccc1=O [Example 139, 6-(5-amino-6-anilino-3-phenyl-2-pyrazinyl)-2-isopropyl-3(2H)-pyridazinone]
237 °C (dec.)	CC(C)n1nc(-c2nc(C(=O)O)c(N)nc2-c2ccccc2Br)ccc1=O [Example 198, 3-amino-5-(2-bromophenyl)-6-(1-isopropyl-6-oxo-1,6-dihydro-3-pyridazinyl)-2-pyrazinecarboxylic acid]
> 250 °C	Cn1nc(-c2nc(O)c(N)nc2-c2ccccc2)ccc1=O [Example 187, 6-(5-amino-6-hydroxy-3-phenyl-2-pyrazinyl)-2-methyl-3(2H)-pyridazinone]
76 to 78 °C	COc1ccc(CNc2nc(-c3ccccc3Br)c(-c3ccc(=O)n(C(C)C)n3)nc2C#N)cc1 [Example 196, 5-(2-bromophenyl)-6-(1-isopropyl-6-oxo-1,6-dihydro-3-pyridazinyl)-3-[(4-methoxybenzyl)amino]-2-pyrazinecarbonitrile]
120 to 122 °C	CC(C)n1nc(-c2nc(OCCOCc3ccccc3)c(N)nc2-c2ccccc2)ccc1=O [Example 168, 6-{5-amino-6-[2-(benzyloxy)ethoxy]-3-phenyl-2-pyrazinyl}-2-isopropyl-3(2H)-pyridazinone]
